US20220031668A1, “METHODS OF INHIBITING PROCOLLAGEN-LYSINE, 2-OXOGLUTARATE 5-DIOXYGENASE 2” (University of Kentucky Research Foundation, priority 2020, published 2022)

What follows are compounds tested on MDA-MB-231 cells (assay: 3D culture assay of cancer cell invasion). Conditions: 10 μM.
Format: cell-based, human
Protocol: 3D culture assay is an established platform to study cancer cell invasion, and the ability of compounds to attenuate such cell invasion (Zhang 2015). […] The MDA-MB-231 cell line is an epithelial, human breast cancer cell line.
Briefly, to conduct the 3D culture assay, 12-well plates were coated with […], matrigel per well. After incubating the plates at 37° C. for 15 minutes, MDA-MB-231 cells were plated with about 300 cells per well. The plates were allowed to stand for 45 min in the 37° C. incubator to let the cells deposit into the matrigel. The cells were then covered with 10% matrigel, which contained test compounds. […]

SMILES	invasive growth of MDA-MB-231 cells in 3D culture
CN(C)C(=O)C(CCN1CCC(O)(c2ccc(Cl)cc2)CC1)(c1ccccc1)c1ccccc1 [Loperamide]	inhibits invasive growth

Same assay, conditions: 20 μM, 3D culture for 3 days

SMILES	inhibitory activity on breast cancer progression (invasive growth) in 3D culture
C[N+](C)(C)CC(O)CC(=O)O (racemic) [DL-Carnitine]	inhibitory activity
N=C(N)NC(=O)c1nc(Cl)c(N)nc1N [Amiloride]	inhibitory activity
CN1CCCC(n2nc(Cc3ccc(Cl)cc3)c3ccccc3c2=O)CC1 (stereo not drawn) [Azelastine]	inhibitory activity
O=C(O)c1cc(O)c(O)c(O)c1 [Gallic acid]	inhibitory activity
C[N+](C)(C)C[C@H](O)CC(=O)[O-] [L-Carnitine]	inhibitory activity
